Laboratory results taken from PubChem BioAssay (NCI).
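Values below derive from 48-hour exposures of cells grown in 96-well plates, with endpoints linearly interpolated between the two concentrations bracketing the appropriate inhibition level. GI50 marks 50% less growth. TGI denotes the concentration required for complete inhibition of growth.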

Experiments:
Experiment in all cases: inhibition of tumour cell growth, NCI panel, 48 h
SW-620 colon = test system: SW-620 colon
SK-MEL-5 melanoma = test system: SK-MEL-5 melanoma
OVCAR-4 ovarian = test system: OVCAR-4 ovarian
ACHN renal = test system: ACHN renal
HOP-62 NSCLC = test system: HOP-62 NSCLC
KM12 colon = test system: KM12 colon
OVCAR-8 ovarian = test system: OVCAR-8 ovarian
U251 CNS = test system: U251 CNS
SNB-75 CNS = test system: SNB-75 CNS
COLO 205 colon = test system: COLO 205 colon

In the case of `CSc1ccc(C2=NN(C(C)=O)C(c3ccc(-c4ccc(Cl)cc4)o3)C2)cc1` (stereo not given), the GI50 (SW-620 colon) is reported as 77.7 µM, the TGI (SW-620 colon) is reported as > 100 µM and the GI50 (SK-MEL-5 melanoma) is reported as 29.1 µM. For the same compound, the TGI (SK-MEL-5 melanoma) was > 100 µM, the GI50 (OVCAR-4 ovarian) was 32.9 µM and the TGI (OVCAR-4 ovarian) was > 100 µM. The GI50 (ACHN renal) was 37.1 µM, the TGI (ACHN renal) was > 100 µM and the GI50 (HOP-62 NSCLC) was 42.4 µM. For the same compound, the TGI (HOP-62 NSCLC) was > 100 µM, the GI50 (KM12 colon) was 24000 nM and the TGI (KM12 colon) was > 100 µM. The GI50 (OVCAR-8 ovarian) was 81.7 µM, the TGI (OVCAR-8 ovarian) was > 100 µM and the GI50 (U251 CNS) was 31.3 µM. The TGI (U251 CNS) was > 100 µM, the GI50 (SNB-75 CNS) was 25400 nM and the TGI (SNB-75 CNS) was > 100 µM. The GI50 (COLO 205 colon) was 36.2 µM and the TGI (COLO 205 colon) was > 100 µM.
With `Nc1n[nH]c2ccc([C@@H]3Nc4cc5c(cc4[C@H]4C6CCC(C6)[C@@H]34)C(=O)NC5)cc12` (stereo not given in full) the GI50 (SW-620 colon) was 0.362 µM, the TGI (SW-620 colon) was > 100 µM and the GI50 (SK-MEL-5 melanoma) was 0.232 µM. For the same compound, the TGI (SK-MEL-5 melanoma) was 0.612 µM, the GI50 (OVCAR-4 ovarian) was 1.37 µM and the TGI (OVCAR-4 ovarian) was > 100 µM. The GI50 (ACHN renal) was 0.726 µM, the TGI (ACHN renal) was > 100 µM and the GI50 (HOP-62 NSCLC) was 0.513 µM. For the same compound, the TGI (HOP-62 NSCLC) was > 100 µM, the GI50 (KM12 colon) was 472 nM and the TGI (KM12 colon) was > 100 µM. The GI50 (OVCAR-8 ovarian) was 0.445 µM, the TGI (OVCAR-8 ovarian) was > 100 µM and the GI50 (U251 CNS) was 0.418 µM. For the same compound, the TGI (U251 CNS) was > 100 µM, the GI50 (SNB-75 CNS) was 718 nM and the TGI (SNB-75 CNS) was > 100 µM. The GI50 (COLO 205 colon) was 0.326 µM and the TGI (COLO 205 colon) was 1.7 µM.
For `O=C(Nc1ccccc1OC(=O)c1ccccc1)c1ccccc1`, the GI50 (SW-620 colon) was 4.25 µM, the TGI (SW-620 colon) was > 100 µM and the GI50 (SK-MEL-5 melanoma) was 31.5 µM. For the same compound, the TGI (SK-MEL-5 melanoma) was > 100 µM, the GI50 (OVCAR-4 ovarian) was 18.7 µM and the TGI (OVCAR-4 ovarian) was > 100 µM. The GI50 (ACHN renal) was 43.6 µM, the TGI (ACHN renal) was > 100 µM and the GI50 (HOP-62 NSCLC) was 18.8 µM. For the same compound, the TGI (HOP-62 NSCLC) was > 100 µM, the GI50 (KM12 colon) was 3120 nM and the TGI (KM12 colon) was 10.9 µM. The GI50 (OVCAR-8 ovarian) was 6.35 µM, the TGI (OVCAR-8 ovarian) was > 100 µM and the GI50 (U251 CNS) was 6.35 µM. For the same compound, the TGI (U251 CNS) was > 100 µM, the GI50 (SNB-75 CNS) was 7720 nM and the TGI (SNB-75 CNS) was > 100 µM. It also gave a GI50 (COLO 205 colon) of 30.1 µM and a TGI (COLO 205 colon) of 95.6 µM.
For `CC(=O)O[C@@H]1C[C@@]2(C)[C@@H]3CC=C4[C@@H](C[C@H](O)C(=O)C4(C)C)[C@]3(C)C(=O)C[C@]2(C)[C@H]1[C@@](C)(O)C(=O)/C=C/C(C)(C)OC(C)=O`, the TGI (SW-620 colon) was 35.6 µM, the TGI (SK-MEL-5 melanoma) was 11 µM and the TGI (OVCAR-4 ovarian) was > 32.3 µM. The TGI (ACHN renal) was 3.44 µM, the TGI (HOP-62 NSCLC) was 5.29 µM and the TGI (KM12 colon) was 39.2 µM. The TGI (OVCAR-8 ovarian) was > 49.1 µM, the TGI (U251 CNS) was 10.5 µM and the TGI (SNB-75 CNS) was 25.3 µM. The TGI (COLO 205 colon) was > 39.7 µM.
With `CN1CCN(CCCCCN=c2cc3c(=O)n(CCCCCN4CCN(C)CC4)c(=O)c4c(NCCCCCN5CCN(C)CC5)cc5c(O)n(CCCCCN6CCN(C)CC6)c(=O)c2c5c4-3)CC1` the GI50 (SW-620 colon) was 3.31 µM, the TGI (SW-620 colon) was 31.6 µM and the GI50 (SK-MEL-5 melanoma) was 14.1 µM. The TGI (SK-MEL-5 melanoma) was 58.8 µM, the GI50 (OVCAR-4 ovarian) was 2.22 µM and the TGI (OVCAR-4 ovarian) was 5.61 µM. The GI50 (ACHN renal) was 43.3 µM, the TGI (ACHN renal) was > 100 µM and the GI50 (HOP-62 NSCLC) was 2.45 µM. The TGI (HOP-62 NSCLC) was 12.2 µM, the GI50 (KM12 colon) was 2490 nM and the TGI (KM12 colon) was 8.39 µM. For the same compound, the GI50 (OVCAR-8 ovarian) was 3.92 µM, the TGI (OVCAR-8 ovarian) was 17.2 µM and the GI50 (U251 CNS) was 2.21 µM. The TGI (U251 CNS) was 6.68 µM, the GI50 (SNB-75 CNS) was 2660 nM and the TGI (SNB-75 CNS) was 10.2 µM. It also gave a GI50 (COLO 205 colon) of 2.31 µM and a TGI (COLO 205 colon) of 8.07 µM.
For `CCOC(=O)C1Nc2ccccc2[C@H]2OCC[C@@H]12` (stereo not given in full), the TGI (SW-620 colon) was > 100 µM, the TGI (SK-MEL-5 melanoma) was > 100 µM and the TGI (OVCAR-4 ovarian) was > 100 µM. For the same compound, the TGI (ACHN renal) was > 100 µM, the TGI (HOP-62 NSCLC) was > 100 µM and the TGI (KM12 colon) was > 100 µM. The TGI (OVCAR-8 ovarian) was > 100 µM, the TGI (U251 CNS) was > 100 µM and the TGI (SNB-75 CNS) was > 100 µM. For the same compound, the TGI (COLO 205 colon) was > 100 µM.
With `O=Nc1c(-c2c(O)[nH]c3ncccc23)[nH]c2ccccc12` the GI50 (SW-620 colon) was 11.3 µM, the TGI (SW-620 colon) was > 100 µM and the GI50 (SK-MEL-5 melanoma) was 15 µM. The TGI (SK-MEL-5 melanoma) was > 100 µM, the GI50 (OVCAR-4 ovarian) was 9.1 µM and the TGI (OVCAR-4 ovarian) was > 100 µM. For the same compound, the GI50 (ACHN renal) was 2.58 µM, the TGI (ACHN renal) was > 100 µM and the GI50 (HOP-62 NSCLC) was > 100 µM. The TGI (HOP-62 NSCLC) was > 100 µM, the GI50 (KM12 colon) was 1320 nM and the TGI (KM12 colon) was > 100 µM. The GI50 (OVCAR-8 ovarian) was > 100 µM, the TGI (OVCAR-8 ovarian) was > 100 µM and the GI50 (U251 CNS) was > 100 µM. The TGI (U251 CNS) was > 100 µM, the GI50 (SNB-75 CNS) was 2560 nM and the TGI (SNB-75 CNS) was > 100 µM. The GI50 (COLO 205 colon) was 28.4 µM and the TGI (COLO 205 colon) was > 100 µM.
`COc1cc2cc(Oc3ccc(NC(=O)c4ccc(Cl)c(Cl)c4)cc3)c(C)nc2cc1OC` was tested, and the GI50 (SW-620 colon) was > 100 µM, the TGI (SW-620 colon) was > 100 µM and the GI50 (SK-MEL-5 melanoma) was 4.99 µM. For the same compound, the TGI (SK-MEL-5 melanoma) was > 100 µM, the GI50 (OVCAR-4 ovarian) was 5.26 µM and the TGI (OVCAR-4 ovarian) was > 100 µM. The GI50 (ACHN renal) was 8.63 µM, the TGI (ACHN renal) was > 100 µM and the GI50 (HOP-62 NSCLC) was > 100 µM. The TGI (HOP-62 NSCLC) was > 100 µM, the GI50 (KM12 colon) was 12700 nM and the TGI (KM12 colon) was > 100 µM. For the same compound, the GI50 (OVCAR-8 ovarian) was > 100 µM, the TGI (OVCAR-8 ovarian) was > 100 µM and the GI50 (U251 CNS) was > 100 µM. For the same compound, the TGI (U251 CNS) was > 100 µM, the GI50 (SNB-75 CNS) was > 100000 nM and the TGI (SNB-75 CNS) was > 100 µM. For the same compound, the GI50 (COLO 205 colon) was 6.44 µM and the TGI (COLO 205 colon) was > 100 µM.
